Counter-ions that a name gives are not always drawn.
How the values were obtained:
[1] = target: PARP1 (Homo sapiens, UniProt P09874); test: PARP1 fluorescence polarization binding assay; conditions: binding IC50, GST-tagged PARP1 20 nM, PARPi-FL 3 nM
How it was run: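 Competitive FP binding: 20 nM GST-tagged PARP1 preincubated with compound 30 min at RT, then 3 nM PARPi-FL probe for 4 h at RT; buffer 50 mM Tris pH 8.0, 10 mM MgCl2, 150 mM NaCl. 10-point 3-fold dilutions; % inhibition from mP versus controls, IC50 by four-parameter fit, reported in ranges.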

[2] = target: recombinant human PARP2 (Homo sapiens, UniProt Q9UGN5); test: PARP2 fluorescence polarization binding assay; conditions: for IC50: binding IC50, GST-tagged PARP2 20 nM, PARPi-FL 3 nM; for inhibition at 10 µM: read-out: PARP2 % inh at 10 μM
How it was run: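 GST-tagged PARP2, added at 40 nM in 50 mM Tris pH 8.0, 0.001% Triton X-100, 10 mM MgCl2, 150 mM NaCl, was preincubated 30 min at RT with compound (10-point 3-fold series or single concentration). PARPi-FL probe was then added at 6 nM for 4 h. IC50 was fitted from fluorescence polarization (ex 480/em 535 nm) with floating top and bottom.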

[3] = test system: MDA-MB-436 cells; test: Colony formation assay; type: cell-based; conditions: Homo sapiens, seeding density 2000-4000 cells/well and treatment time 12-14 days
Protocol: A colony formation assay was performed to assess the activity of test compounds. MDA-MB-436 cells were harvested, counted and seeded in culture medium (DMEM+10% FBS+1% PS) at a specified density in a volume of 600-1000 μL per well in a 24-well cell culture plate. The plates were incubated overnight at 37° C. in a 5% CO2 incubator. Test compounds were dissolved in DMSO and added to the plate in duplicate wells for each concentration tested. On day 7, the supernatant was removed and 1000 μL of freshly diluted compounds were added to the plates. The plates were returned to incubator to continue incubation. After treatment with the compounds for a specified number of days, e.g. 10-14 days, detection was performed. For detection, the plate was incubated for 20 min after removing the medium and adding fixing solution. Subsequently, the fixing solution was removed and the plates washed with PBS. The plates were then stained with staining solution (0.1% (w/v) crystal violet). After removal of the staining solution, the plates were washed with PBS and scanned on a LICOR imager using the 700 nm channel.

Chain of PARP1 (P09874 whole entry): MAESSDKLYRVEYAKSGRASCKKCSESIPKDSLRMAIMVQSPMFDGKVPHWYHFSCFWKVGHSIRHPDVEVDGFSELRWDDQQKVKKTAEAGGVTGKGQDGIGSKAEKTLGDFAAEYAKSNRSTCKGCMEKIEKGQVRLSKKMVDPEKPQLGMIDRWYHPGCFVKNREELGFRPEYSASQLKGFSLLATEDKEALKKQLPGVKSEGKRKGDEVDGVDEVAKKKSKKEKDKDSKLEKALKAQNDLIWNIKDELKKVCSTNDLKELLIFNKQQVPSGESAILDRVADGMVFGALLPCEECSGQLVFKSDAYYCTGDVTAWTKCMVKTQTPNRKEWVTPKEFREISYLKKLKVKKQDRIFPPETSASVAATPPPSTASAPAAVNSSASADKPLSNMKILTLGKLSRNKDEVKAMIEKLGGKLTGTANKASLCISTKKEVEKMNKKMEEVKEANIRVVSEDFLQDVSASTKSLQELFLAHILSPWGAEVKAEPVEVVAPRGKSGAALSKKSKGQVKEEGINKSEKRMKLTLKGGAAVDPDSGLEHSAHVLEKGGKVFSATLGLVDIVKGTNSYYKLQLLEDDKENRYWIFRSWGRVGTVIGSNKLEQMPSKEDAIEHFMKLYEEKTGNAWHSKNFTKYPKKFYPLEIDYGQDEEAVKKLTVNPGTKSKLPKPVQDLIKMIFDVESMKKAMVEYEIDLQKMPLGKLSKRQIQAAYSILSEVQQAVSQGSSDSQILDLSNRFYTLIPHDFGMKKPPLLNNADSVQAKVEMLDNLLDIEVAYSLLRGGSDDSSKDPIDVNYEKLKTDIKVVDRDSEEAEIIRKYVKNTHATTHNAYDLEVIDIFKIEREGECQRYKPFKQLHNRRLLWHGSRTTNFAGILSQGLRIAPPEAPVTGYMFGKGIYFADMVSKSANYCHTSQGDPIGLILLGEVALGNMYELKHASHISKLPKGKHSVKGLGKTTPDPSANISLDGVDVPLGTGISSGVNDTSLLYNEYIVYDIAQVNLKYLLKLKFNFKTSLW
Chain of recombinant human PARP2 (Q9UGN5 whole entry): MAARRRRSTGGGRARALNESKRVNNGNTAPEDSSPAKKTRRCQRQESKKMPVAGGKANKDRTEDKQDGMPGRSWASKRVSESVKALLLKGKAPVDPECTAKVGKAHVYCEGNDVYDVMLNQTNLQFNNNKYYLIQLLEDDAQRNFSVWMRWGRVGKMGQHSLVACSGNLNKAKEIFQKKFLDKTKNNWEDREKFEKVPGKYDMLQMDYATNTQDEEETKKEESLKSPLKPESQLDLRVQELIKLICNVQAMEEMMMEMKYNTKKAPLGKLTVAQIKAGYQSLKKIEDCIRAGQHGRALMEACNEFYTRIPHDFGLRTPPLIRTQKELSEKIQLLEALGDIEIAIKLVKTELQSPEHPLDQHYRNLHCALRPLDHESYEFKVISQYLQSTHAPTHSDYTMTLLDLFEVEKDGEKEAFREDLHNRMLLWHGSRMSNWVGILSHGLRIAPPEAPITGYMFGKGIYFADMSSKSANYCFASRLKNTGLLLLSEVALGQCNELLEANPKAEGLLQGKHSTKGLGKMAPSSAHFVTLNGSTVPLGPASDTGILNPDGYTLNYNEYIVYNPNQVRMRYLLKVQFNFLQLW

| SMILES | IC50 [1] [nM] | IC50 [2] [nM] | inhibition at 10 µM [2] [%] | inhibition at 0.3 µM [3] [%] | inhibition at 3 µM [3] [%] | inhibition at 30 µM [3] [%] |
| --- | --- | --- | --- | --- | --- | --- |
| CCn1c(=O)[nH]c2cc(CN3CCN(c4ccc(C(=O)NC)nc4)CC3)ccc2c1=O [Compound 3, 5-(4-((3-ethyl-2,4-dioxo-1,2,3,4-tetrahydroquinazolin-7-yl)methyl)piperazin-1-yl)-N-methylpicolinamide formate] | < 100 | > 3000 | 33 to 67 | ≥ 66.7 | ≥ 66.7 | ≥ 66.7 |
| CCn1c(=O)[nH]c2cc(CN3CCN(c4ccc(C(=O)NC)nc4C)CC3)ccc2c1=O [Compound 16, 5-{4-[(3-ethyl-2,4-dioxo-1H-quinazolin-7-yl)methyl]piperazin-1-yl}-N,6-dimethylpyridine-2-carboxamide] | < 100 | > 3000 | 33 to 67 | ≥ 66.7 | ≥ 66.7 | ≥ 66.7 |
| CCn1c(=O)[nH]c2cc(CN3CCN(c4ccc(C(=O)NC)nc4C)CC3)ccc2c1=S [Compound 51, 5-(4-((3-ethyl-2-oxo-4-thioxo-1,2,3,4-tetrahydroquinazolin-7-yl)methyl)piperazin-1-yl)-N,6-dimethylpicolinamide formate] | < 100 | > 3000 | 33 to 67 | ≥ 66.7 | ≥ 66.7 | ≥ 66.7 |
| CCn1c(=O)[nH]c2cc(CN3CCN(c4ccc(C(=O)NC)nc4C)CC3)sc2c1=O [Compound 188, 5-(4-((3-ethyl-2,4-dioxo-1,2,3,4-tetrahydrothieno[3,2-d]pyrimidin-6-yl)methyl)piperazin-1-yl)-N,6-dimethylpicolinamide] | < 100 | > 3000 | 33 to 67 | ≥ 66.7 | ≥ 66.7 | ≥ 66.7 |
| CCN1Cc2ccc(CN3CCN(c4ccc(C(=O)NC)nc4)CC3)cc2NC1=O [Compound 196, 5-(4-((3-ethyl-2-oxo-1,2,3,4-tetrahydroquinazolin-7-yl)methyl)piperazin-1-yl)-N-methylpicolinamide formate] | < 100 | > 3000 | 33 to 67 | < 33.3 | 33.3 to 66.7 | 33.3 to 66.7 |
